Data: ChEMBL document CHEMBL6083261, “Structure-guided design and photochemical synthesis of new carbamo(dithioperoxo)thioates with improved potencies to SARS-CoV-2 3CLpro” (Bioorg Med Chem, 2024)

How the values were obtained:
Vero C1008 = assay: Cytotoxicity against African green monkey Vero E6 cells at 1 mM incubated for 24 hrs by CCK-8 method; type: toxicity, cell-based; settings: chlorocebus sabaeus, vero c1008, 24 h, 1000 µM
[1] = molecular target: T1, Replicase polyprotein 1ab (Severe acute respiratory syndrome coronavirus 2, UniProt P0DTD1); assay: Inhibition of SARS-CoV-2 PL protease
[2] = molecular target: T1, Replicase polyprotein 1ab; assay: (§1) Inhibition of SARS-CoV-2 N/C terminal 6his tagged 3CL protease extracted from Escherichia coli BL21(DE3) using CA-AVLQSGFR-Lys(Dnp)-Lys-NH2 as fluorescent substrate preincubated for 1 hr followed by substrate addition and measured after 20 mins by FRET analysis
[3] = molecular target: Replicase polyprotein 1ab (Severe acute respiratory syndrome coronavirus 2) (UniProt P0DTD1); assay: as §1, with “10 mins” for “1 hr”, “every 10 sec for 10” for “after 20”, “mins in presence of DTT” for “mins”, “analysis relative to control” for “analysis”; design: concentration or dose not given beside the values; settings: time 20.0 min
[4] = molecular target: T1, Replicase polyprotein 1ab; assay: Inhibition of SARS-CoV-2 RdRp
[5] = molecular target: Replicase polyprotein 1ab (Severe acute respiratory syndrome coronavirus 2) (UniProt P0DTD1); assay: Inhibition of SARS-CoV-2 N/C terminal 6his tagged 3CL protease extracted from Escherichia coli BL21(DE3) using CA-AVLQSGFR-Lys(Dnp)-Lys-NH2 as fluorescent substrate preincubated for 1 hr followed by substrate addition and measured after 20 mins by FRET analysis relative to control; design: concentration or dose not given beside the values; settings: time 80.0 min

Compound | Activity (Vero C1008) | IC50 [1] [nM] | IC50 [2] [µM] | inhibition [3] [%] | IC50 [4] [µM] | inhibition [5] [%]
OC1CCN(C(=S)SSC(=S)N2CCC(O)CC2)CC1 | Toxic | 580 | 0.92 | 60 | 83.1 | –
OC1CCN(C(=S)SSCc2ccccc2)CC1 | – | 330 | 0.25 | 60 | 21.4 | > 95
OC1CCN(C(=S)SSc2ccc(F)cc2)CC1 | Toxic | 100 | 0.19 | 60 | 9.77 | > 95
OC1CCN(C(=S)SSc2ccccc2)CC1 | Toxic | > 100000 | 0.35 | 60 | > 100 | > 95
COC(=O)C1CCCN1C(=S)SSc1ccccc1 (stereo not given) | – | 390 | 0.54 | – | 57.6 | –
CCN(CC)C(=S)SSc1ccccc1 | – | > 100000 | 1070 | – | > 100 | –
S=C(SSc1ccccc1)N1CCOCC1 | – | 1730 | 0.66 | – | > 100 | –
COc1ccc(SSC(=S)N2CCC(O)CC2)cc1 | Toxic | 150 | 0.23 | 60 | 8.52 | > 95
S=C(SSc1ccccc1)N1CCCCC1 | – | 2500 | 0.64 | – | > 100 | –
COC(=O)CCSSC(=S)N1CCC(O)CC1 | Toxic | > 100000 | 0.47 | – | > 100 | > 95
S=C(SSC(=S)N1CCOCC1)N1CCOCC1 | – | 390 | 1.22 | – | 53.6 | –
S=C(SSC(=S)N1CCCCC1)N1CCCCC1 [BIS(PIPERIDINYLTHIOCARBONYL)DISULFIDE] | – | 70 | 1.48 | – | 10.2 | –
Oc1ccc(SSC(=S)N2CCC(O)CC2)cc1 | Toxic | 7710 | 0.3 | 60 | 97.8 | > 95
OC1CCN(C(=S)SSc2ccc(C(F)(F)F)cc2)CC1 | Toxic | 40 | 0.14 | 60 | 15.9 | > 95
S=C(SSC(=S)N1CCCC1)N1CCCC1 [BIS(PYRROLIDINYLTHIOCARBONYL)DISULFIDE] | – | 60 | 1.34 | – | 8.92 | –
O=[N+]([O-])c1ccc(SSC(=S)N2CCC(O)CC2)cc1 | Toxic | 320 | 0.24 | 60 | 45.6 | > 95
S=C(SSc1ccccc1)N1CCCC1 | – | 220 | 0.4 | – | 12 | –
